Read-outs that look alike come from different tables or passages of the source.
How the values were obtained:
[1] = molecular target: BACE 1 (Beta Secretase enzyme) (Homo sapiens, UniProt P56817); assay: In vitro enzymatic BACE FRET assay; type: biochemical
Method: In Vitro Enzymatic BACE FRET (Fluorescence Resonance Energy Transfer) Assay (Enzyme Assay Data in Table 1)
The assay buffer used in this screen is 0.05 M acetate, pH 4.2, 10% DMSO final, 100 uM genapol (which is a nonionic detergent, below its Critical Micelle Concentration). […] The assay is effectively started by the addition of FRET substrate (50 nM) and the combination is incubated for one hour. The FRET assay is terminated with by addition of Tris buffer, which raises the pH to neutrality, and the fluorescence is determined. The FRET substrate is a peptide with commercially available fluorophore and quencher, on opposite sides of the BACE cleavage site.

[2] = system: Aβ40 in conditioned medium of cells stably expressing Amyloid Precursor Protein (APP); assay: In vitro BACE cell-based assay (HEK cell assay), Aβ40 sandwich ELISA; settings: IC50 range symbols, Table 1, Aβ40, 24 h incubation, read-out: HEK cell assay
Method: In Vitro BACE Cell-Based Assay:
The cell-based assay measures inhibition or reduction of Aβ40 in conditioned medium of test compound treated cells expressing amyloid precursor protein.
Cells stably expressing Amyloid Precursor Protein (APP) were plated at a density of 40K cells/well in 96 well plates (Costar). The cells were cultivated for 24 hours at 37° C. and 5% CO2 in DMEM supplemented with 10% FBS. The test compounds were then added to cells in 10-point dose response concentrations with the starting concentration being either 100 μM or 10 μM. The compounds were diluted from stock solutions in DMSO and the final DMSO concentration of the test compounds on cells was 0.1%. After 24 h of incubation with the test compounds the supernatant conditioned media was collected and the Aβ 40 levels were determined using a sandwich ELISA. The IC50 of the compound was calculated from the percent of control or percent inhibition of Aβ 40 as a function of the concentration of the test compound.
The sandwich ELISA to detect Aβ 40 was performed in 96 well microtiter plates, which were pre-treated with goat anti-rabbit IgG (Pierce). The capture and detecting antibody pair that were used to detect Aβ 40 from cell supernatants were affinity purified pAb40 (Biosource) and biotinylated 6E10 (Signet Labs Inc.), respectively. The optimal concentration for the pAb40 antibody was 3 μg/ml in Superblock/TBS (Pierce) that was supplemented with 0.05% Tween 20 (Sigma).
Cellular supernatants were incubated with the capture antibody for 3 h at 4° C., followed by 3 wash steps in TBS-tween (0.05%). The detecting antibody incubation was for 2 h at 4° C., again followed by the wash steps as described previously. The final readout of the ELISA is Time-Resolved Fluorescence (counts per minute) using Delfia reagents Streptavidin-Europium and Enhancement solutions (Perkin Elmer) and the Victor 2 multilabel counter (Perkin Elmer).

[3] = IC50 range symbols, Table 1, read-out: BACE 1 FRET assay
[4] = bound stated, read-out: IC50 value in the FRET BACE enzyme assay

Chain of BACE 1 (Beta Secretase enzyme) (P56817 46-501, species assumed): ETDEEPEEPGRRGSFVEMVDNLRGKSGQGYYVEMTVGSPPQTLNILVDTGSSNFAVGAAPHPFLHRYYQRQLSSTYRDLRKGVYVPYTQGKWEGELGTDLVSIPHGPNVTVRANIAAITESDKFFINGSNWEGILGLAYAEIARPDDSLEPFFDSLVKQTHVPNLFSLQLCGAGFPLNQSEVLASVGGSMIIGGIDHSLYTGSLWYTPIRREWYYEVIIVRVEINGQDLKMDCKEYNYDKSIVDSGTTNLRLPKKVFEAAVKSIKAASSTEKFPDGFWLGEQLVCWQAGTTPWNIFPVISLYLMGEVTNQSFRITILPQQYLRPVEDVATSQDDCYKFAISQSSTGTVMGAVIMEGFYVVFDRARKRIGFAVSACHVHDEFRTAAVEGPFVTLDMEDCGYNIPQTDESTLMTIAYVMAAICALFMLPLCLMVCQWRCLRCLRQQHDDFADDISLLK

| IC50 [1, 3] [nM] | IC50 ([2]; Homo sapiens, HEK293, 24 h) [nM] | IC50 [2] [nM] | IC50 [1, 4] [nM] | SMILES |
| --- | --- | --- | --- | --- |
| 1000 to 5000 | 1000 to 5000 | – | – | Cc1ccc(NC(=O)CCc2cc3cc(-c4ccccc4C)ccc3nc2N)c(F)c1 [Example 53, 3-(2-amino-6-o-tolylquinolin-3-yl)-N-(2-fluoro-4-methylphenyl)propanamide] |
| 1000 to 5000 | > 5000 | – | – | Cc1ccccc1-c1ccc2nc(N)c(CCC(=O)NCc3ccn(C)n3)cc2c1 [Example 54, 3-(2-amino-6-o-tolylquinolin-3-yl)-N-((1-methyl-1H-pyrazol-3-yl)methyl)propanamide] |
| 1000 to 5000 | > 5000 | – | – | Cc1ccccc1-c1ccc2nc(N)c(CCC(=O)NCC3(C)COC3)cc2c1 [Example 58, 3-(2-amino-6-o-tolylquinolin-3-yl)-N-((3-methyloxetan-3-yl)methyl)propanamide] |
| < 500 | 1000 to 5000 | – | – | CCn1ccc(CNC(=O)CCc2cc3cc(-c4ccccc4C)ccc3nc2N)n1 [Example 59, 3-(2-amino-6-o-tolylquinolin-3-yl)-N-((1-ethyl-1H-pyrazol-3-yl)methyl)propanamide] |
| < 500 | 1000 to 5000 | – | – | CO[C@@H]1CCC[C@H]1NC(=O)CCc1cc2cc(-c3ccccc3C)ccc2nc1N [Example 62, 3-(2-amino-6-o-tolylquinolin-3-yl)-N-((1R,2R)-2-methoxycyclopentyl)propanamide] |
| < 500 | 1000 to 5000 | – | – | Cc1ccccc1-c1ccc2nc(N)c(CCC(=O)NCc3nccs3)cc2c1 [Example 63, 3-(2-amino-6-o-tolylquinolin-3-yl)-N-(thiazol-2-ylmethyl)propanamide] |
| < 500 | < 500 | – | – | Cc1ccccc1-c1ccc2nc(N)c(CC(C)C(=O)NC3CCCN(C)C3)cc2c1 (stereo not drawn) [Example 64, 3-(2-amino-6-o-tolylquinolin-3-yl)-2-methyl-N-(1-methylpiperidin-3-yl)propanamide] |
| < 500 | > 5000 | – | – | Nc1nc2ccc(-c3ccc(F)cc3)cc2cc1CCC(=O)NCC1CCCCC1 [Example 65, 3-(2-amino-6-(4-fluorophenyl)quinolin-3-yl)-N-(cyclohexylmethyl)propanamide] |
| < 500 | 1000 to 5000 | – | – | Cc1ccccc1-c1ccc2nc(N)c(CCC(=O)NCc3ncco3)cc2c1 [Example 67, 3-(2-amino-6-o-tolylquinolin-3-yl)-N-(oxazol-2-ylmethyl)propanamide] |
| 1000 to 5000 | > 5000 | – | – | Cc1ccc(CNC(=O)CCc2cc3cc(-c4ccccc4C)ccc3nc2N)c(F)c1 [Example 68, N-(2-fluoro-4-methylbenzyl)-3-(2-amino-6-o-tolylquinolin-3-yl)propanamide] |
| < 500 | 1000 to 5000 | – | – | COC(Cc1cc2cc(-c3ccccc3C)ccc2nc1N)C(=O)NCC1CCCCC1 (stereo not drawn) [Example 71, 3-(2-amino-6-o-tolylquinolin-3-yl)-N-(cyclohexylmethyl)-2-methoxypropanamide] |
| < 500 | > 5000 | – | – | CC(C)c1ccccc1-c1ccc2nc(N)c(CCC(=O)NCC3CCCCC3)cc2c1 [Example 72, 3-(2-amino-6-(2-isopropylphenyl)quinolin-3-yl)-N-(cyclohexylmethyl)propanamide] |
| 1000 to 5000 | > 5000 | – | – | COc1ccccc1[C@@H](C)NC(=O)[C@H](C)Cc1cc2cc(-c3ccccc3C)ccc2nc1N [Example 74, (R)-3-(2-amino-6-o-tolylquinolin-3-yl)-N-((R)-1-(2-methoxyphenyl)ethyl)-2-methylpropanamide] |
| < 500 | 1000 to 5000 | – | – | COc1ccccc1[C@@H](C)NC(=O)[C@@H](C)Cc1cc2cc(-c3ccccc3C)ccc2nc1N [Example 75, (S)-3-(2-amino-6-o-tolylquinolin-3-yl)-N-((R)-1-(2-methoxyphenyl)ethyl)-2-methylpropanamide] |
| < 500 | 1000 to 5000 | – | – | COc1ccccc1[C@@H](C)NC(=O)C(C)Cc1cc2cc(-c3ccccc3C)ccc2nc1N (stereo partly drawn) [Example 76, 3-(2-amino-6-o-tolylquinolin-3-yl)-N-((R)-1-(2-methoxyphenyl)ethyl)-2-methylpropanamide] |
| < 500 | 1000 to 5000 | – | – | Cc1ccccc1-c1ccc2nc(N)c(CC(C)C(=O)N[C@H](C)c3ccccc3OC(F)F)cc2c1 (stereo partly drawn) [Example 77, 3-(2-amino-6-o-tolylquinolin-3-yl)-N-((R)-1-(2-(difluoromethoxy)phenyl)ethyl)-2-methylpropanamide] |
| 1000 to 5000 | – | > 5000 | – | Cc1ccccc1-c1ccc2nc(N)c(CCC(=O)N[C@H](C)c3cccnc3)cc2c1 [Example 78, 3-(2-amino-6-o-tolylquinolin-3-yl)-N-((R)-1-(pyridin-3-yl)ethyl)propanamide] |
| < 500 | 500 to 1000 | – | < 50 | Cc1ccccc1-c1ccc2nc(N)c(C[C@@H](C)C(=O)NCc3cccnn3)cc2c1 [Example 81, (R)-3-(2-amino-6-o-tolylquinolin-3-yl)-2-methyl-N-(pyridazin-3-ylmethyl)propanamide] |
| 500 to 1000 | 1000 to 5000 | – | – | CC(Cc1cc2cc(-c3ncccc3Cl)ccc2nc1N)C(=O)NC[C@@H]1CCCCO1 (stereo partly drawn) [Example 82, 3-(2-amino-6-(3-chloropyridin-2-yl)quinolin-3-yl)-2-methyl-N-(((S)-tetrahydro-2H-pyran-2-yl)methyl)propanamide] |
| < 500 | 1000 to 5000 | – | – | CC(Cc1cc2cc(-c3ncccc3Cl)ccc2nc1N)C(=O)NC[C@H]1CCCCO1 (stereo partly drawn) [Example 83, 3-(2-amino-6-(3-chloropyridin-2-yl)quinolin-3-yl)-2-methyl-N-(((R)-tetrahydro-2H-pyran-2-yl)methyl)propanamide] |
| < 500 | < 500 | – | < 50 | Cc1ccccc1-c1ccc2nc(N)c(C[C@@H](C)C(=O)NCc3ccncn3)cc2c1 [Example 84, (R)-3-(2-amino-6-o-tolylquinolin-3-yl)-2-methyl-N-(pyrimidin-4-ylmethyl)propanamide] |
| < 500 | < 500 | – | – | Cc1ccccc1-c1ccc2nc(N)c(C[C@@H](C)C(=O)NCc3ncccn3)cc2c1 [Example 85, (R)-3-(2-amino-6-o-tolylquinolin-3-yl)-2-methyl-N-(pyrimidin-2-ylmethyl)propanamide] |
| < 500 | < 500 | – | – | Cc1cccnc1-c1ccc2nc(N)c(CC(C)C(=O)NC[C@H]3CCCOC3)cc2c1 (stereo partly drawn) [Example 86, 3-(2-amino-6-(3-methylpyridin-2-yl)quinolin-3-yl)-2-methyl-N-(((R)-tetrahydro-2H-pyran-3-yl)methyl)propanamide] |
| < 500 | 500 to 1000 | – | – | Cc1cccnc1-c1ccc2nc(N)c(CC(C)C(=O)NCC3CCOCC3)cc2c1 (stereo not drawn) [Example 88, 3-(2-amino-6-(3-methylpyridin-2-yl)quinolin-3-yl)-2-methyl-N-((tetrahydro-2H-pyran-4-yl)methyl)propanamide] |
| < 500 | 500 to 1000 | – | – | Cc1cccnc1-c1ccc2nc(N)c(CC(C)C(=O)NC[C@@H]3CCCOC3)cc2c1 (stereo partly drawn) [Example 89, 3-(2-amino-6-(3-methylpyridin-2-yl)quinolin-3-yl)-2-methyl-N-(((S)-tetrahydro-2H-pyran-3-yl)methyl)propanamide] |
| < 500 | 1000 to 5000 | – | – | Cc1ccccc1-c1ccc2nc(N)c(CC(C)C(=O)NCC3CCOC3)cc2c1 (stereo not drawn) [Example 91, 3-(2-amino-6-o-tolylquinolin-3-yl)-2-methyl-N-((tetrahydrofuran-3-yl)methyl)propanamide] |

From US9296698B2, “Amino heteroaryl compounds as beta-secretase modulators and methods of use” (Amgen Inc., priority 2009, dated 2016)
